Data set [1] has as its system human articular chondrocytes (hAC). In words: Osteogenic differentiation of hAC, Alizarin Red S staining (calcium deposition). Format: cell-based. The following applies: 21 d osteogenic differentiation medium; 200 ng/mL CXCL12; inhibitors 1 µM; n = 5. The protocol:
(§1) hAC were seeded in passage 2 at a density of 1 × 10^4 cells/cm^2 and osteogenic differentiation was induced on the next day by addition of osteogenic differentiation medium [ODM: DMEM, 10% FBS, 1 g/L glucose, 1% L-glutamine, 1% penicillin/streptomycin, 10 mM β-glycerophosphate disodium salt hydrate (Sigma-Aldrich), 0.1 µM dexamethasone, 200 µM 2-phospho-L-ascorbic acid trisodium salt]. […] Medium was changed twice a week and additives were refreshed every time. Cells cultured in BM served as negative control.
Evaluation of osteogenic differentiation was carried out by means of an Alizarin Red S staining which indicates calcium deposition. At first, cells were incubated in 70% ethanol for 1 h and subsequently stained with a 40 mM Alizarin Red S solution. For quantification, the cells were washed carefully and bound Alizarin Red S was dissolved in 10% Cetylpyridinium (Sigma-Aldrich). With a multimode microplate reader Infinite M200 Pro (Tecan Austria GmbH, Crailsheim, Germany), absorbance at 652 nm was measured and the amount of Alizarin Red S was calculated based on a standard calibration curve.

Data set [2] concerns the target T1, ACKR3 (Homo sapiens, UniProt P25106). Nature of the data set: β-arrestin-2 recruitment at ACKR3, agonism (NanoBiT, transfected HEK293T cells). Format: cell-based. Also noted: SmBiT (NanoBiT fragment); expressed in transfected cells; host or cells: HEK293T. Particulars: compound alone. On the procedure: Fifteen thousand HEK293T cells were seeded in 92 µL complete DMEM medium (supplemented with 10% FCS, 1% L-Glutamine and 1% penicillin/streptomycin) and allowed to adhere overnight. On the next day cells were transfected with plasmids containing a β-arrestin-2 coupled to a SmBiT and a CXCR4 or ACKR3 construct coupled to the LgBiT of the NanoBiT protein–protein-interaction assay system. The SmBiT was coupled to the intracellular C-term of the receptor, while the LgBiT was coupled to the N-term of the ß-arrestin. For the transfection, LT1 transfection reagent was used according to manufacturer’s instructions. The next day, medium was changed to 100µL pre-warmed OptiMEM before luminescence measurements were initiated.
For agonism measurements, single compounds were added to the wells after 10 min of background measurement. Baseline correction was performed in the same manner and resulting AUCs were compared to the buffer-only control wells to calculate n-fold ß-arrestin induction.
A general note: Arrestin recruitment assays detect the binding of arrestin to an activated receptor.

The conditions of data set [3]: cited from earlier work.
For data set [4], the system named is MSCs. Particulars: AMD3100 400 µM, cited from earlier work.
The target in data set [5] is T1, ACKR3. The following applies: cited from earlier work. From the text: (§2) In case of CXCR4, there is evidence that binding of CXCL12 promotes a hypertrophic phenotype in chondrocytes, characterized by enhanced catabolic enzyme production (e.g., matrix metalloproteinase 13 (MMP-13)) and collagen type X expression.
Data set [6] concerns mice. The following applies: cited from earlier work.
Description: as §2

For data set [7], the system named is Dunkin Hartley guinea pigs. Particulars: cited from earlier work.
Description: as §2

The subject of data set [8] is human articular chondrocytes (hAC). In words: Ki-67 immunocytochemistry (proliferation). The following applies: 48 h; 200 ng/mL CXCL12; simultaneous addition of inhibitors 1 µM; n = 4. Format: cell-based. The protocol:
On the next day, an Alexa Fluor 488 labled anti-rabbit antibody (1:200, ab150077, Abcam) was added and nuclei were stained with DAPI (0.25 µg/mL). The fluorescence microscope Axioskop 2 mot plus was used for imaging and Ki-67 appeared in green and nuclei in blue.

Data set [9] deals with mouse. Particulars: both inflammatory mouse models; cited from earlier work. From the text: To date, three CXCR4 antagonist have been approved for clinical applications. However, these ligands are only approved for autologous stem cell transplantation in Non-Hodgkin’s lymphoma and the treatment of the WHIM syndrome, a rare congenital immunodeficiency disorder. One decade ago, another promising CXCR4 inhibitor was identified – the Endogenous Peptide Inhibitor of CXCR4, termed EPI-X4 [33]. EPI-X4 is a 16 amino acids long endogenous fragment of human serum albumin and specifically binds to CXCR4 thereby acting as an antagonist and inverse agonist. Using rational dru ...

In data set [10] the test system is mice. Particulars: cited from earlier work. From the text: In case of CXCR4, there is evidence that binding of CXCL12 promotes a hypertrophic phenotype in chondrocytes, characterized by enhanced catabolic enzyme production (e.g., matrix metalloproteinase 13 (MMP-13)) and collagen type X expression. […] It should also be considered that the pathophysiological mechanisms are not mediated by chondrocytes alone.
The source holds these as a separate data set.

Data set [11] deals with human articular chondrocytes (hAC). Nature of the data set: Gene expression during osteogenic differentiation of hAC (qRT-PCR). Format: cell-based. Particulars: 14 d osteogenic differentiation; 200 ng/mL CXCL12; inhibitors 1 µM; n = 4. On the procedure:
as §1

Data set [12] has the same test system. In words: Chondrogenic re-differentiation of hAC in pellet culture, histological scoring. Format: cell-based. Particulars: 28 d in chondrogenic differentiation medium; 200 ng/mL CXCL12; inhibitors 1 µM; n ≥ 4. On the procedure: Pellet cultures were generated containing 3.5 × 10^5 hAC in passage 3 and were cultured in chondrogenic differentiation medium [SFM: DMEM, 4.5 g/L glucose, 1% L-glutamine, 1% penicillin/streptomycin, 200 μM 2-phospho-L-ascorbic acid trisodium salt, 0.1% Insulin-Transferrin-Selenium, 0.1 µM dexamethasone (Sigma-Aldrich), 40 µg/mL L-proline (Sigma-Aldrich), 1% pyruvate, 10 ng/mL rhTGF-β3 (PeproTech), 10 ng/mL rhBMP6 (PeproTech)]. The medium was changed twice per week and 200 ng/mL CXCL12 and 1 µM compounds was added. After 28 days, resulting cell pellets were embedded in paraffin and prepared for histology (Collagen type II-IHC and Safranin O staining). For evaluation, a previously established scoring system was used (supplementary Table S2).

Data set [13] shares this test system. Nature of the data set: Gene expression of hypertrophy markers in isolated hAC (qRT-PCR). Format: cell-based. The following applies: 48 h; 200 ng/mL CXCL12; n = 4. On the procedure:
(§3) During experiments, hAC were cultured in medium with reduced FBS content (5%) and stimulated with 200 ng/mL CXCL12, 1 µM compounds and/or 10 ng/mL IL-1β. Stress-induced premature senescence (SIPS) was induced by Doxorubicin (Doxo) (Selleckchem) treatment. The senescent phenotype was confirmed as previously described. In brief, hAC were exposed to 0.1 µM Doxo for 7 days. Doxo was refreshed three times per week.

For data set [14], the system named is human cartilage explants. Nature of the data set: Live/dead viability/cytotoxicity assay in cartilage explants. The class given is cell-based. The following applies: day 7; 200 ng/mL CXCL12 with or without CXCR4 inhibitors 1 µM; n = 5. The protocol:
A Live/Dead Viability/Cytotoxicity Assay (Live Technologies) was applied to determine the number of living and dead cells in cartilage explants. A small tissue section of 0.5 mm thickness was extracted from an unfixed cartilage explant and incubated for 40 min in a staining solution (1 µM calcein and 2 µM ethidium homodimer-1). Microscopic analysis was carried out with a Axioskop 2 mot plus microscope and using a z-stack model (AxioVision software).

Data set [15] relates to human articular chondrocytes (hAC). Nature of the data set: Wound healing assay. Format: cell-based. Particulars: 24 h; 200 ng/mL CXCL12; inhibitors 1 µM; 5% FBS; n ≥ 5. On the procedure:
At first, a 2 Well Culture-Insert (Ibidi, Gräfelfing, Germany) was attached on a well of a 24 well plate. In each well of the insert, 70 µL cell suspension containing 20,000 hAC (passage 1 or 2) was added and incubated overnight. Next, medium with reduced FBS content (5%) was added and the insert carefully removed. […] Images were captured (Canon EOS 700D camera (Canon, Krefeld, Germany)) after 0 h and 24 h. Cells migrated into the gap were manually counted as previously described.

The test system is the same in data set [16]. In words: alamarBlue cytotoxicity/cell proliferation assay. Format: cell-based. The following applies: 24 h; 200 ng/mL CXCL12; CXCR4 inhibitors 1 µM in combination with CXCL12 or alone; n = 5. The protocol:
as §3
To quantitatively assess the cell proliferation and cytotoxicity of hAC, an alamarBlue (BioRad, Munich, Germany) assay was used. The assay is based on the conversion of non-fluorescent resazurin to fluorescent resorufin during cellular respiration. The fluorescence intensity of resorufin was measured at 550 nm excitation and 590 nm emission with a multimode microplate reader Infinite M200 Pro (Tecan, Crailsheim, Germany). Unstimulated cells served as baseline (100% cell viability).
(In general: Resazurin is reduced to fluorescent resorufin, in cell work by metabolically active cells.)

Data set [17] has the same test system. Nature of the data set: Live cell imaging of undirected migration. Format: cell-based. Particulars: 200 ng/mL CXCL12; inhibitors 1 µM; monitored for 10 h (method), legend says 48 h; normalized to untreated control; n = 5. The protocol:
Subsequently, cell localization was monitored for 10 h with a Live Cell Imaging Microscope Leica DMI6000 I (Leica Microsystems, Wetzlar, Germany). Images were acquired every 30 min and at least 6 cells of each well were manually tracked with ImageJ 2.9.0. The average migration distance was calculated and values were normalized to the untreated control.

Data set [18] has as its target T2, CXCR4 (Homo sapiens, UniProt P61073).
T2 construct: SmBiT (NanoBiT fragment); expressed in transfected cells; host or cells: HEK293T
In words: Inhibition of CXCL12-induced β-arrestin-2 recruitment at CXCR4 (NanoBiT, transfected HEK293T cells). The class given is cell-based.
Description: Fifteen thousand HEK293T cells were seeded in 92 µL complete DMEM medium (supplemented with 10% FCS, 1% L-Glutamine and 1% penicillin/streptomycin) and allowed to adhere overnight. On the next day cells were transfected with plasmids containing a β-arrestin-2 coupled to a SmBiT and a CXCR4 or ACKR3 construct coupled to the LgBiT of the NanoBiT protein–protein-interaction assay system. […] For the transfection, LT1 transfection reagent was used according to manufacturer’s instructions. The next day, medium was changed to 100µL pre-warmed OptiMEM before luminescence measurements were initiated.
For antagonism measurements, cells were first supplied with compounds and 10 min later with 30 nM CXCL12. Subsequently, luminescence signal was measured over 1 h. Baseline luminescence of each well in the first 10 min was averaged and used to calculate the signal-to-noise ratio for all subsequent time points of the same well. The signal-to-noise ratios were further recalculated as a ratio to the average of buffer-only treated wells. These values were plotted over time and areas under curve (AUCs) were determined for each well. Data were normalized to buffer-only wells as 0% and CXCL12-only treated wells as 100%.

Counter-ions that a name gives are not always drawn. Like-named read-outs stand apart in the source and are kept apart here. Residues, ends and D or L forms follow the SMILES beside them.

T1 sequence (P25106 whole entry, the tested form may be a part): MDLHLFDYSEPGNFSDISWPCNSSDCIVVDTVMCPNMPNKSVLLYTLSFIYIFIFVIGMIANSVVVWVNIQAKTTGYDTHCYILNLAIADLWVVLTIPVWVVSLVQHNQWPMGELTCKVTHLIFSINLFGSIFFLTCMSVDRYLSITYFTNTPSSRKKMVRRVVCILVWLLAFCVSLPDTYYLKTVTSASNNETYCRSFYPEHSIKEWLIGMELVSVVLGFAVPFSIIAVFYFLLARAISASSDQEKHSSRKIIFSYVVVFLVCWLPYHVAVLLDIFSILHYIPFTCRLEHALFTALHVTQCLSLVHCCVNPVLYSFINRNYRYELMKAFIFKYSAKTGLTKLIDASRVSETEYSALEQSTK
T1 sequence (P32121 whole entry partner, the tested form may be a part): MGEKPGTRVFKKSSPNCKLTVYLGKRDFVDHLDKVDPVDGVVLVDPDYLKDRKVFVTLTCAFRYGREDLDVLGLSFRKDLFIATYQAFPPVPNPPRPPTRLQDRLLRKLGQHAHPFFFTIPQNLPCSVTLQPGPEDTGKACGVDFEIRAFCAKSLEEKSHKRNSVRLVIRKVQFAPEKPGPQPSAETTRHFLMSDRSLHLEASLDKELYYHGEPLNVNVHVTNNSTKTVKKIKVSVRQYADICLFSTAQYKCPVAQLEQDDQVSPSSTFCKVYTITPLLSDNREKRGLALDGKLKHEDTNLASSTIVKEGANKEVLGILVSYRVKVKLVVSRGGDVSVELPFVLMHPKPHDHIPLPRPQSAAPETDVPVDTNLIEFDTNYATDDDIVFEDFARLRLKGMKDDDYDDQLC
T2 sequence (P61073 whole entry, the tested form may be a part): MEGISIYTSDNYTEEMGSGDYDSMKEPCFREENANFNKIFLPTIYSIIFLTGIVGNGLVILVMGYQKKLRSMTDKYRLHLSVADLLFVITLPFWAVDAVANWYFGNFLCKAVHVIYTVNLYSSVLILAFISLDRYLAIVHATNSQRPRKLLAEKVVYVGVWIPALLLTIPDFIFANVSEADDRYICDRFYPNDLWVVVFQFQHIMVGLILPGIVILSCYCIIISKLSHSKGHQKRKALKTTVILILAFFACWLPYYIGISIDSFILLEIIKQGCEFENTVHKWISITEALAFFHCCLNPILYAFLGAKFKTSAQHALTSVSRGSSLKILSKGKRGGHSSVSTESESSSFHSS

Turning to `c1cc(CN2CCCNCCNCCCNCC2)ccc1CN1CCCNCCNCCCNCC1` [AMD3100, AMD3100 octahydrochloride hydrate], in data set [1], the “Ca2+ deposition / matrix calcification (Alizarin Red S)” value is recorded as “could not find any influence”. The “agonistic activity to recruit β-arrestin-2 at ACKR3” value in [2] (concentrations up to 10 µM) is “weak agonistic activity”. Further, in data set [3], the “clinical peak plasma concentrations” value is ~ 1 μM. For the same compound, the “matrix calcification during in vitro osteogenesis of MSCs” value in data set [4] is reported as “not affected”. Besides, the “gene expression of osteogenic markers during in vitro osteogenesis of MSCs” value in data set [4] (to a limited extend) is reported as “impaired”. Also, in data set [5], the “activity at ACKR3” value is “weak allosteric agonist”. Further, the “collagen-induced arthritis (CIA)” value in data set [6] is “attenuate”. Moreover, the “spontaneous OA development” value in data set [7] is “attenuate”. In addition, the “proliferation (Ki-67-positive cells)” value in data set [8] is on record as “not altered”. Besides, the “activity in mouse models of atopic dermatitis and eosinophilic asthma” value in [9] is reported as “only poorly active”. In data set [10] (mice), the “surgically-induced OA” value was “attenuate”. For the same compound, the “severity of surgically-induced OA on inhibition in subchondral bone” value in data set [10] (mouse model, delivery to subchondral bone via an osmotic pump) is “reduced the severity”. Also, in data set [11], the “expression of the hypertrophic marker COL10A1 during osteogenic differentiation” value is reported as “significantly reduced” and the “gene expression of osteogenic markers (ALPL, RUNX2, SP7, IBSP)” value is listed as “could not find any influence”.
With “CXCL12: C-X-C motif chemokine 12, ligand of CXCR4 and ACKR3; used as stimulus at 200 ng/mL”, in data set [12], the “neocartilage formation, histologic assessment (score) of pellet culture” value is on record as “did not reveal any significant effect”. In data set [13], the “gene expression of COL10A1 in isolated chondrocytes” value is “did not significantly induce” and the “gene expression of MMP13 in isolated chondrocytes” value is “did not significantly induce”. Further, in data set [1], the “Ca2+ deposition / matrix calcification (Alizarin Red S)” value is listed as “could not find any influence”. In addition, the “cytotoxic effects in native cartilage tissue (live/dead assay)” value in [14] is on record as “did not observe any cytotoxic effects”. Also, the “proliferation (Ki-67-positive cells)” value in data set [8] is recorded as “not altered”. For the same compound, the “number of migrated hAC in wound healing assay” value in data set [15] was “significantly increased”. For the same compound, the “cytotoxic effects in isolated chondrocytes (alamarBlue, relative fluorescence intensity)” value in [16] is given as “did not observe any cytotoxic effects”. Further, the “migration distance of isolated hAC (live cell tracking)” value in data set [17] is on record as “increased”. Besides, in [11], the “expression of the hypertrophic marker COL10A1 during osteogenic differentiation” value is reported as “tended to increase” and the “gene expression of osteogenic markers (ALPL, RUNX2, SP7, IBSP)” value is given as “could not find any influence”.
Take `CC(C)C[C@H](NC(=O)[C@@H](NC(=O)[C@@H]1CCCN1C(=O)[C@@H](NC(=O)[C@H](CO)NC(=O)[C@@H](NC(=O)[C@H](CCC(N)=O)NC(=O)[C@@H]1CCCN1C(=O)[C@@H](NC(=O)[C@H](CCCCN)NC(=O)[C@H](CCCCN)NC(=O)[C@@H](NC(=O)[C@H](Cc1ccc(O)cc1)NC(=O)[C@H](CCCNC(=N)N)NC(=O)[C@@H](NC(=O)[C@@H](N)CC(C)C)C(C)C)[C@@H](C)O)C(C)C)C(C)C)[C@@H](C)O)[C@@H](C)O)C(=O)O` [EPI-X4] (H-LVRYTKKVPQVSTPTL-OH): the IC50 (as a rule, the point on the concentration scale where inhibition reaches its midpoint) in data set [18] worked out at 10.2 nM.
`CC[C@H](C)[C@H](N)C(=O)N[C@@H](CC(C)C)C(=O)N[C@@H](CCCNC(=N)N)C(=O)N[C@@H](Cc1c[nH]c2ccccc12)C(=O)N[C@@H](CO)C(=O)N[C@@H](CCCNC(=N)N)C(=O)N[C@@H](CCCCN)C(=O)N[C@@H](CC(C)C)C(=O)N1CCC[C@H]1C(=O)N[C@@H](CS)C(=O)N[C@H](C(=O)N[C@@H](CO)C(=O)O)C(C)C` [EPI-X4 JM#21]: a half-maximal response in data set [2] (AUC vs buffer-only control) (EC50) required 7800 nM. Further, the IC50 in data set [18] (read-out: IC50, inhibition of CXCL12-induced recruitment of β-arrestin-2 at CXCR4) came to 164 nM.

Source of the values: PMC12670779, “Targeting the CXCL12/CXCR4 pathway by an optimized derivative or EPI-X4 preserves chondrocyte function and offers a novel therapeutic approach in rheumatic diseases” (Arthritis Research & Therapy, 2025).
